Assay [1] addresses human GABAA α2β2γ1 receptor (Homo sapiens (Human), UniProt P47869+Q8N1C3). Briefly: Radioligand binding assay for γ1-containing GABAA subtypes, [3H]RO7239181 competition (α2β2γ1).
Assay [2] has as its target human GABAA α5β2γ1 receptor (Homo sapiens (Human), UniProt P31644+Q8N1C3). In words: Radioligand binding assay for γ1-containing GABAA subtypes, [3H]RO7239181 competition (α5β2γ1).
The target in assay [3] is α2β2γ1 GABAA receptor subtype (Homo sapiens (Human), UniProt P47869+Q8N1C3). In words: Two-electrode voltage clamp electrophysiology in Xenopus oocytes expressing GABAA receptors (modulation of GABA EC20 current). Type of assay: cell-based. Conditions: for Efficacy (GABA)%: % modulation of GABA EC20 = 100*(Fold increase-1), α2β2γ1 oocytes, compound at approx. 30-fold Ki; for Fold increase h-GABA-A α2β2γ1 oocyte @ 30-fold Ki: Xenopus oocytes expressing α2β2γ1, compound at approx. 30-fold its Ki α2β2γ1, GABA EC20 current. Summed up:
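Two-electrode voltage clamp at −80 mV, room temperature, 3-5 days after mRNA injection into oocytes. GABA applied at EC20 for 1.5 min, twice, with compound during second application; at least 3 oocytes per concentration. Efficacy = extremum of point-by-point current ratio, expressed as 100×(fold increase−1).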
(In general: In two-electrode clamp one electrode senses voltage and the other passes current.)

The target in assay [4] is human GABAA α1β3γ2 receptor (Homo sapiens (Human), UniProt P14867+P18507). Briefly: Radioligand binding assay for γ2-containing GABAA subtypes, [3H]Flumazenil competition (α1β3γ2). The following applies: for γ2/γ1 Selectivity Ratio: Ki α1β3γ2 (nM)/Ki α2β2γ1 (nM); for LogSel: Log[Ki α1β3γ2 (nM)/Ki α2β2γ1 (nM)].
The mark [5] stands for this setting: Ki h-GABAA α2β2γ1, [3H]RO7239181 competition binding, human GABAA α2β2γ1.
The mark [6] stands for this setting: Ki h-GABAA α2β2γ1, displacement of [3H]RO7239181, membranes of HEK293F cells expressing human receptors, means of two determinations.

Consider `C[C@@H]1N=C(c2ncccc2F)c2c(ccc(C(F)(F)F)c2Cl)-n2cc(C(=O)N3CC(C(F)F)C3)nc21` [Example 156, [3-(difluoromethyl)azetidin-1-yl]-[(4S)-7-chloro-6-(3-fluoro-2-pyridyl)-4-methyl-8-(trifluoromethyl)-4H-imidazo[1,2-a][1,4]benzodiazepin-2-yl]methanone], for which the Ki (commonly a measure of affinity in units of concentration, obtained from inhibition or displacement) in assay [1] (setting [5]) turned out to be 95.1 nM. Also, the Ki in assay [1] (setting [6]) was found to be 93.1 nM. Further, the Ki in assay [2] was found to be 15.5 nM. Further, in assay [3], the “Efficacy (GABA)%” value was found to be 168% and the “Fold increase h-GABA-A α2β2γ1 oocyte @ 30-fold Ki” value stood at 2.68. Moreover, in assay [4], the Ki stood at 10800 nM, the “γ2/γ1 Selectivity Ratio” value is recorded as 116.1 and the LogSel came out at 2.06.

As for `C[C@@H]1N=C(c2ncccc2F)c2c(ccc(C(F)(F)F)c2Cl)-n2cc(C(=O)NC[C@@H](C)O)nc21` [Example 157, (4S)-7-chloro-6-(3-fluoro-2-pyridyl)-4-methyl-N-[(2R)-2-hydroxypropyl]-8-(trifluoromethyl)-4H-imidazo[1,2-a][1,4]benzodiazepine-2-carboxamide], the affinity in assay [1] (setting [5]) corresponds to a Ki of 60.1 nM. This molecule also displayed a Ki in assay [1] (setting [6]) of 60 nM. Besides, the Ki in assay [2] was found to be 13.4 nM. For the same molecule, in assay [3], the “Efficacy (GABA)%” value is given as 191% and the “Fold increase h-GABA-A α2β2γ1 oocyte @ 30-fold Ki” value is 2.91. Moreover, in assay [4], the affinity, expressed as Ki, was 11100 nM; the “γ2/γ1 Selectivity Ratio” value is reported as 185.8; the LogSel was 2.27.

As for `CCOC1CN(C(=O)c2cn3c(n2)[C@H](C)N=C(c2ncccc2F)c2c-3ccc(C(F)(F)F)c2Cl)C1` [Example 158, (3-ethoxyazetidin-1-yl)-[(4S)-7-chloro-6-(3-fluoro-2-pyridyl)-4-methyl-8-(trifluoromethyl)-4H-imidazo[1,2-a][1,4]benzodiazepin-2-yl]methanone], the affinity in assay [1] (setting [5]), expressed as Ki, was 94.6 nM. This molecule also came in with a Ki in assay [1] (setting [6]) of 94.1 nM. Further, in assay [2], the Ki came out at 21.7 nM. Also, in assay [3], the “Efficacy (GABA)%” value worked out at 144% and the “Fold increase h-GABA-A α2β2γ1 oocyte @ 30-fold Ki” value is recorded as 2.44. In assay [4], the Ki was greater than 30000 nM, the “γ2/γ1 Selectivity Ratio” value turned out to be 318.9 and the LogSel is 2.50.

Regarding `C[C@@H]1N=C(c2ncccc2F)c2c(ccc(C(F)(F)F)c2Cl)-n2cc(C(=O)N3CC(C)(O)C3)nc21` [Example 160, (3-hydroxy-3-methyl-azetidin-1-yl)-[(4S)-7-chloro-6-(3-fluoro-2-pyridyl)-4-methyl-8-(trifluoromethyl)-4H-imidazo[1,2-a][1,4]benzodiazepin-2-yl]methanone], the Ki in assay [1] (setting [5]) stood at 66.4 nM; in assay [1] (setting [6]), 66.3 nM; in assay [2], 19.2 nM; in assay [4] it was 13300 nM. Further, the “Efficacy (GABA)%” value in assay [3] is recorded as 177%. For the same molecule, the “Fold increase h-GABA-A α2β2γ1 oocyte @ 30-fold Ki” value in assay [3] is recorded as 2.77. Also, the “γ2/γ1 Selectivity Ratio” value in assay [4] was found to be 201.1. This molecule gave a LogSel in assay [4] of 2.30.

On to `C[C@@H]1N=C(c2ncccc2F)c2c(ccc(C(F)(F)F)c2Cl)-n2cc(C(=O)N3CC(F)C3)nc21` [Example 161, (3-fluoroazetidin-1-yl)-[(4S)-7-chloro-6-(3-fluoro-2-pyridyl)-4-methyl-8-(trifluoromethyl)-4H-imidazo[1,2-a][1,4]benzodiazepin-2-yl]methanone], for which the Ki in assay [1] (setting [5]) was 72.8 nM; in assay [1] (setting [6]), 72.7 nM; in assay [2] it was 21.3 nM; in assay [4], greater than 30000 nM. Also, the “Efficacy (GABA)%” value in assay [3] is 165%. Further, the “Fold increase h-GABA-A α2β2γ1 oocyte @ 30-fold Ki” value in assay [3] was determined as 2.65. In assay [4], the “γ2/γ1 Selectivity Ratio” value turned out to be 412.4. The same molecule came in with a LogSel in assay [4] of 2.62.

`Cc1c(C(=O)NC[C@@H](C)O)nc2n1-c1ccc(C(F)(F)F)c(Cl)c1C(c1ncccc1F)=N[C@H]2C` [Example 162, (4S)-7-chloro-6-(3-fluoro-2-pyridyl)-1,4-dimethyl-N-[(2R)-2-hydroxypropyl]-8-(trifluoromethyl)-4H-imidazo[1,2-a][1,4]benzodiazepine-2-carboxamide] came in with a Ki in assay [1] (setting [5]) of 54.4 nM. The molecule further returned a Ki in assay [1] (setting [6]) of 55.7 nM. In addition, in assay [2], the Ki is 13.6 nM. Besides, in assay [3], the “Efficacy (GABA)%” value came to 148% and the “Fold increase h-GABA-A α2β2γ1 oocyte @ 30-fold Ki” value was found to be 2.48. Further, in assay [4], the Ki amounted to 11700 nM, the “γ2/γ1 Selectivity Ratio” value was 210.1 and the LogSel came out at 2.32.

As to `CC1CN(C(=O)c2cn3c(n2)[C@H](C)N=C(c2ncccc2F)c2c-3ccc(C(F)(F)F)c2Cl)C1` [Example 163, (3-methylazetidin-1-yl)-[(4S)-7-chloro-6-(3-fluoro-2-pyridyl)-4-methyl-8-(trifluoromethyl)-4H-imidazo[1,2-a][1,4]benzodiazepin-2-yl]methanone], the Ki in assay [1] (setting [5]) is 87.1 nM; in assay [1] (setting [6]), 101 nM; in assay [2], 20.6 nM; in assay [4] it was 13500 nM. The “Efficacy (GABA)%” value in assay [3] turned out to be 136%. Further, in assay [3], the “Fold increase h-GABA-A α2β2γ1 oocyte @ 30-fold Ki” value was found to be 2.36. Besides, in assay [4], the “γ2/γ1 Selectivity Ratio” value is recorded as 134.0. In assay [4], this molecule had a LogSel of 2.13.

As to `C[C@@H]1N=C(c2ncccc2F)c2c(ccc(C(F)(F)F)c2Cl)-n2cc(C(=O)NCC3(O)CC3)nc21` [Example 164, (4S)-7-chloro-6-(3-fluoro-2-pyridyl)-N-[(1-hydroxycyclopropyl)methyl]-4-methy-8-(trifluoromethyl)-4H-imidazo[1,2-a][1,4]benzodiazepine-2-carboxamide], the Ki in assay [1] (setting [5]) was found to be 35.2 nM. In assay [1] (setting [6]), this molecule registered a Ki of 33.7 nM. The same molecule displayed a Ki in assay [2] of 10.6 nM. Moreover, in assay [3], the “Efficacy (GABA)%” value is on record as 177% and the “Fold increase h-GABA-A α2β2γ1 oocyte @ 30-fold Ki” value is 2.77. For the same molecule, in assay [4], the affinity, expressed as Ki, was 8520 nM; the “γ2/γ1 Selectivity Ratio” value is 253.2; the LogSel was found to be 2.40.

In the case of `C[C@@H]1N=C(c2ncccc2F)c2c(ccc(C(F)(F)F)c2Cl)-n2cc(C(=O)N[C@H]3C[C@H](O)C3)nc21` [Example 165, (4S)-7-chloro-6-(3-fluoro-2-pyridyl)-N-(trans-3-hydroxycyclobutyl)-4-methyl-8-(trifluoromethyl)-4H-imidazo[1,2-a][1,4]benzodiazepine-2-carboxamide], the Ki amounted to 36.2 nM in assay [1] (setting [5]), 43.3 nM in assay [1] (setting [6]), 9.55 nM in assay [2] and 7770 nM in assay [4]. In addition, the “Efficacy (GABA)%” value in assay [3] was 183%. In assay [3], the “Fold increase h-GABA-A α2β2γ1 oocyte @ 30-fold Ki” value came to 2.83. Moreover, the “γ2/γ1 Selectivity Ratio” value in assay [4] is 179.6. The molecule further showed a LogSel in assay [4] of 2.25.

For `C[C@@H]1N=C(c2ncccc2F)c2c(ccc(C(F)(F)F)c2Cl)-n2cc(C(=O)N[C@H]3C[C@@H](O)C3)nc21` [Example 166, (4S)-7-chloro-6-(3-fluoro-2-pyridyl)-N-(cis-3-hydroxycyclobutyl)-4-methyl-8-(trifluoromethyl)-4H-imidazo[1,2-a][1,4]benzodiazepine-2-carboxamide], in assay [1] (setting [5]), the Ki worked out at 46.5 nM. The same molecule came in with a Ki in assay [1] (setting [6]) of 43.4 nM. In assay [2], this molecule showed a Ki of 9.14 nM. In assay [3], the “Efficacy (GABA)%” value is listed as 184% and the “Fold increase h-GABA-A α2β2γ1 oocyte @ 30-fold Ki” value amounted to 2.84. Besides, in assay [4], the affinity, expressed as Ki, was 10200 nM; the “γ2/γ1 Selectivity Ratio” value was determined as 234.5; the LogSel was found to be 2.37.

The record behind these values is patent US12365687B2 (Hoffmann-La Roche Inc., priority 2021, dated 2025).
